Experimental data taken from article PMC7503308, “A Novel Urease Inhibitor of Ruminal Microbiota Screened through Molecular Docking” (International Journal of Molecular Sciences, 2020).
Entries after “also recorded” stand apart in the source; their conditions may differ.

What was measured:
ruminal microbial urease = test: Urease inhibition assay (Berthelot alkaline phenol-hypochlorite method); format: biochemical, rumen bacteria of Chinese Holstein dairy cows
Protocol: Rumen fluid samples were collected from five Chinese Holstein dairy cows with permanent rumen fistula 3 h after feeding a total mixed ration in the morning. All the operations were conducted in accordance with the protocol approved by the Animal Care and Use Committee for Livestock of the Institute of Animal Sciences, Chinese Academy of Agricultural Sciences (Permit Number: IAS2019-14, Permit Date: 22-03-2019). All rumen fluid samples were filtered by a six layer sterilized medical gauze and mixed in a sterilized beaker before being evenly distributed into different 50 mL tubes and stored in liquid nitrogen. The deforested samples were centrifuged at 12,000× g for 10 min at 4 °C, then the supernatant was removed from the tube. The remaining sediments were resuspended in a HEPES buffer solution (pH 7.5, 50 mM) and then centrifuged at 12,000× g for 10 min at 4 °C. The supernatant was discarded and the remaining rumen bacteria were collected and stored at −80 °C for later urease extraction. All the sample handing processes were conducted on an ice bath. […]
In vitro urease inhibition screening assays were conducted to further narrow the virtual screened compounds for further IC50 determination and kinetic characterization. […] The ammonia that was produced was measured using 50 μL of a phenol reagent containing 10.0 g/L phenol and 50 mg/L of sodium nitroprusside, and 50 μL of alkali reagent containing 5 g/L sodium hydroxide and 8.4 mL/L of sodium hypochlorite solution, at 37 °C for 30 min. The absorbance of each well was measured at 625 nm by a micro plate spectrophotometer (Thermo Scientific Varioskan Flash G-282, Thermo Scientific, Waltham, MA, USA). The endogenous nitrogen (blank) was measured by adding a 70 μL HEPES buffer (pH 7.5, 50 mM) containing no urea and 20 μL methanol solution in the first 30 min of the reaction mixture. The 100% initial activity was determined by adding a 15 μL methanol solution in the first 30 min of the reaction mixture. […]

Caco-2 cells = test: CCK8 colorimetric cytotoxicity assay; format: cell-based; conditions: concentration below 100 μM, 24 h, p > 0.05
Protocol: A standard CCK8 colorimetric assay was employed for the evaluation of cytotoxic activity of compound 6238-0047 using 96-well flat bottomed microplates. Dulbecco’s Modified Eagle Medium (GIBCO) with 10% FBS (fetal bovine serum, FBS, Gibco) and 1% NEAA was used for the culturing of Caco-2 cells (ATCC, Manassas, VA, USA), and the medium was supplemented with 100 μg/mL of streptomycin and 100 IU/mL of penicillin. The medium was kept in 5% CO2 and incubated at 37 °C. The exponentially grown cells were harvested, counted using a hemocytometer and diluted with the medium. The cell culture was diluted to a density of 1 × 10^5 cells/mL and transferred into a 96-well plate with 135 μL or […]. The medium was incubated for 24 h for cell attachment. Following this, 15 μL of compounds with different final concentrations of 1, 10, 25, 50, and 100 μM in the experimental group and fresh medium as a control group, were added to a plate with five replicates for each. After 24 h of incubation at 37 °C and kept in 5% CO2, 15 μL of CCK8 was added to each well and after 2 h the absorbance was measured at 450 nm using a microplate reader. The formula for calculating the relative cell viability was as follows:Relative cell viability (%) = absorbance of experimental group/absorbance of control group × 100%

`COc1ccc(-c2ccc(CCC(=O)O)n2NC(N)=O)cc1` [6238-0047, 3-[1-[(aminocarbonyl)amino]-5-(4-methoxyphenyl)-1H-pyrrol-2-yl] propanoic acid] was tested, and the “Percentage of inhibition against ruminal microbial urease” value (ruminal microbial urease; 0.5 mM compound, compared with other candidate compounds) was “superior ruminal microbial urease inhibition capacity”, the IC50 (ruminal microbial urease; ruminal microbial urease, 37 °C, 30 min, pH 7.5) was 65.9 µM and the “Relative cell viability of Caco-2 cell culture” value (Caco-2 cells) was “no significant adverse effect; also recorded: no significant influence; also recorded: no cytotoxic effect”.
